How the values were obtained:
Assay type in all cases: in vivo
[1] = tested on: GOSHI, Cotton, Gossypium hirsutum, L.; test: Postemergence herbicidal evaluation; settings: crop (cotton)
Description: (§1) The postemergence herbicidal activity of the compounds of the present invention is evaluated by the following tests. Seedling plants are grown in jiffy flats for about two weeks. The test compounds are dispersed in 80/20 (v/v) acetone/water mixtures containing 1.0% SUN-IT®II, a methylated seed oil, in sufficient quantities to provide the equivalent of about 0.006 kg/ha to 0.800 kg/ha of active compound when applied to the plants through a spray nozzle operating at 40 psi for a predetermined time. After spraying, the plants are placed on greenhouse benches and are cared for in accordance with conventional greenhouse procedures. Approximately two to three weeks after treatment, the seedling plants are examined and rated according to the rating system set forth below. Where more than one test is involved for a given compound, the data are averaged.

[2] = tested on: ABUTH, Velvetleaf, Abutilon theophrasti, Medic.; test: Postemergence herbicidal evaluation
Description: as §1

[3] = tested on: AMBEL, Ragweed, Ambrosia artemisifolia, L.; test: Postemergence herbicidal evaluation
Description: as §1

[4] = tested on: CHEAL, Lambsquarters, Chenopodium album, L.; test: Postemergence herbicidal evaluation
Description: as §1

[5] = tested on: ECHCG, Barnyardgrass, Echinochloa crus-galli, (L.) Beau; test: Postemergence herbicidal evaluation
Description: as §1

[6] = tested on: IPOSS, Morningglory spp., Ipomoea spp.; test: Postemergence herbicidal evaluation
Description: as §1

[7] = tested on: ORYSAT, Rice, Tebonnet, Oryza sativa, (L.) Tebonnet; test: Postemergence herbicidal evaluation; settings: crop (rice)
Description: as §1

[8] = tested on: PANDI, Panicum, Fall, Panicum dichotomiflorum, Michx; test: Postemergence herbicidal evaluation
Description: as §1

[9] = tested on: SETVI, Foxtail, Green, Setaria viridis, (L.) Beau; test: Postemergence herbicidal evaluation
Description: as §1

[10] = tested on: ZEAMX, Corn, Field, Zea mays, L.; test: Postemergence herbicidal evaluation; settings: crop (corn)
Description: as §1

[11] = tested on: ABUTH, Velvetleaf, Abutilon theophrasti, Medic.; test: Preemergence herbicidal evaluation
Description: (§2) The preemergence herbicidal activity of the test compounds of the present invention is exemplified by the following tests in which the seeds of a variety of monocotyledonous and dicotyledonous plants are separately mixed with potting soil and planted on top of approximately one inch of soil in separate pint cups. After planting, the cups are sprayed with the selected aqueous acetone solution containing test compound in sufficient quantity to provide the equivalent of about 0.0125 kg/ha to 0.800 kg/ha of test compound per cup. The treated cups are then placed on greenhouse benches, watered and cared for in accordance with conventional greenhouse procedures. Approximately two to four weeks after treatment, the tests are terminated and each cup is examined and rated according to the rating system provided in Example 12. When more than one test is performed for a given compound, the data are averaged.

[12] = tested on: AMBEL, Ragweed, Ambrosia artemisifolia, L.; test: Preemergence herbicidal evaluation
Description: as §2

[13] = tested on: CHEAL, Lambsquarters, Chenopodium album, L.; test: Preemergence herbicidal evaluation
Description: as §2

[14] = tested on: ECHCG, Barnyardgrass, Echinochloa crus-galli, (L.) Beau; test: Preemergence herbicidal evaluation
Description: as §2

[15] = tested on: GOSHI, Cotton, Gossypium hirsutum, L.; test: Preemergence herbicidal evaluation; settings: crop (cotton)
Description: as §2

[16] = tested on: IPOSS, Morningglory spp., Ipomoea spp.; test: Preemergence herbicidal evaluation
Description: as §2

[17] = tested on: ORYSAT, Rice, Tebonnet, Oryza sativa, (L.) Tebonnet; test: Preemergence herbicidal evaluation; settings: crop (rice)
Description: as §2

[18] = tested on: PANDI, Panicum, Fall, Panicum dichotomiflorum, Michx; test: Preemergence herbicidal evaluation
Description: as §2

[19] = tested on: SETVI, Foxtail, Green, Setaria viridis, (L.) Beau; test: Preemergence herbicidal evaluation
Description: as §2

[20] = tested on: ZEAMX, Corn, Field, Zea mays, L.; test: Preemergence herbicidal evaluation; settings: crop (corn)
Description: as §2

## CCCS/C(=C1/C=NN(CC)C1=O)c1ccc2c(c1C)/C(=N/OC)CCS2(=O)=O [Example 8b, 1-Ethyl-4-[(Z)-(5-methyl-4-oxothiochroman-6-yl)(propythio)methylene]-2-pyrazolin-5-one 4′-[(E)-O-methyloxime], S,S-dioxide]
[1]; 0.0500 kg/ha
  Herbicide rating GOSHI: 0.0
[1]; 0.1000 kg/ha
  Herbicide rating GOSHI: 0.0
[1]; 0.2000 kg/ha
  Herbicide rating GOSHI: 0.0
[1]; 0.4000 kg/ha
  Herbicide rating GOSHI: 4.0
[1]; 0.8000 kg/ha
  Herbicide rating GOSHI: 4.5
[2]; 0.0500 kg/ha
  Herbicide rating ABUTH: 1.0
[2]; 0.1000 kg/ha
  Herbicide rating ABUTH: 0.0
[2]; 0.2000 kg/ha
  Herbicide rating ABUTH: 5.0
[2]; 0.4000 kg/ha
  Herbicide rating ABUTH: 5.0
[2]; 0.8000 kg/ha
  Herbicide rating ABUTH: 6.0
[3]; 0.0500 kg/ha
  Herbicide rating AMBEL: 0.0
[3]; 0.1000 kg/ha
  Herbicide rating AMBEL: 5.0
[3]; 0.2000 kg/ha
  Herbicide rating AMBEL: 7.0
[3]; 0.4000 kg/ha
  Herbicide rating AMBEL: 7.0
[3]; 0.8000 kg/ha
  Herbicide rating AMBEL: 7.0
[4]; 0.0500 kg/ha
  Herbicide rating CHEAL: 7.0
[4]; 0.1000 kg/ha
  Herbicide rating CHEAL: 8.0
[4]; 0.2000 kg/ha
  Herbicide rating CHEAL: 8.0
[4]; 0.4000 kg/ha
  Herbicide rating CHEAL: 9.0
[4]; 0.8000 kg/ha
  Herbicide rating CHEAL: 9.0
[5]; 0.0500 kg/ha
  Herbicide rating ECHCG: 6.5
[5]; 0.1000 kg/ha
  Herbicide rating ECHCG: 8.0
[5]; 0.2000 kg/ha
  Herbicide rating ECHCG: 8.0
[5]; 0.4000 kg/ha
  Herbicide rating ECHCG: 9.0
[5]; 0.8000 kg/ha
  Herbicide rating ECHCG: 9.0
[6]; 0.0500 kg/ha
  Herbicide rating IPOSS: 0.0
[6]; 0.1000 kg/ha
  Herbicide rating IPOSS: 0.0
[6]; 0.2000 kg/ha
  Herbicide rating IPOSS: 0.0
[6]; 0.4000 kg/ha
  Herbicide rating IPOSS: 0.0
[6]; 0.8000 kg/ha
  Herbicide rating IPOSS: 0.0
[7]; 0.0500 kg/ha
  Herbicide rating ORYSAT: 1.0
[7]; 0.1000 kg/ha
  Herbicide rating ORYSAT: 1.7
[7]; 0.2000 kg/ha
  Herbicide rating ORYSAT: 3.5
[7]; 0.4000 kg/ha
  Herbicide rating ORYSAT: 1.5
[7]; 0.8000 kg/ha
  Herbicide rating ORYSAT: 3.5
[8]; 0.0500 kg/ha
  Herbicide rating PANDI: 2.0
[8]; 0.1000 kg/ha
  Herbicide rating PANDI: 6.0
[8]; 0.2000 kg/ha
  Herbicide rating PANDI: 7.0
[8]; 0.4000 kg/ha
  Herbicide rating PANDI: 7.0
[8]; 0.8000 kg/ha
  Herbicide rating PANDI: 6.0
[9]; 0.0500 kg/ha
  Herbicide rating SETVI: 3.5
[9]; 0.1000 kg/ha
  Herbicide rating SETVI: 3.5
[9]; 0.2000 kg/ha
  Herbicide rating SETVI: 4.0
[9]; 0.4000 kg/ha
  Herbicide rating SETVI: 9.0
[9]; 0.8000 kg/ha
  Herbicide rating SETVI: 9.0
[10]; 0.0500 kg/ha
  Herbicide rating ZEAMX: 0.0
[10]; 0.1000 kg/ha
  Herbicide rating ZEAMX: 0.0
[10]; 0.2000 kg/ha
  Herbicide rating ZEAMX: 0.0
[10]; 0.4000 kg/ha
  Herbicide rating ZEAMX: 0.0
[10]; 0.8000 kg/ha
  Herbicide rating ZEAMX: 0.0
[11]; 0.2000 kg/ha
  Herbicide rating ABUTH: 0.0
[11]; 0.4000 kg/ha
  Herbicide rating ABUTH: 0.0
[11]; 0.8000 kg/ha
  Herbicide rating ABUTH: 9.0
[12]; 0.2000 kg/ha
  Herbicide rating AMBEL: 0.0
[12]; 0.4000 kg/ha
  Herbicide rating AMBEL: 3.0
[12]; 0.8000 kg/ha
  Herbicide rating AMBEL: 6.0
[13]; 0.2000 kg/ha
  Herbicide rating CHEAL: 6.0
[13]; 0.4000 kg/ha
  Herbicide rating CHEAL: 7.0
[13]; 0.8000 kg/ha
  Herbicide rating CHEAL: 9.0
[14]; 0.2000 kg/ha
  Herbicide rating ECHCG: 0.0
[14]; 0.4000 kg/ha
  Herbicide rating ECHCG: 0.0
[14]; 0.8000 kg/ha
  Herbicide rating ECHCG: 0.0
[15]; 0.2000 kg/ha
  Herbicide rating GOSHI: 0.0
[15]; 0.4000 kg/ha
  Herbicide rating GOSHI: 0.0
[15]; 0.8000 kg/ha
  Herbicide rating GOSHI: 0.0
[16]; 0.2000 kg/ha
  Herbicide rating IPOSS: 0.0
[16]; 0.4000 kg/ha
  Herbicide rating IPOSS: 0.0
[16]; 0.8000 kg/ha
  Herbicide rating IPOSS: 0.0
[17]; 0.2000 kg/ha
  Herbicide rating ORYSAT: 0.0
[17]; 0.4000 kg/ha
  Herbicide rating ORYSAT: 0.0
[17]; 0.8000 kg/ha
  Herbicide rating ORYSAT: 0.0
[18]; 0.2000 kg/ha
  Herbicide rating PANDI: 2.0
[18]; 0.4000 kg/ha
  Herbicide rating PANDI: 7.0
[18]; 0.8000 kg/ha
  Herbicide rating PANDI: 7.0
[19]; 0.2000 kg/ha
  Herbicide rating SETVI: 3.0
[19]; 0.4000 kg/ha
  Herbicide rating SETVI: 0.0
[19]; 0.8000 kg/ha
  Herbicide rating SETVI: 3.0
[20]; 0.2000 kg/ha
  Herbicide rating ZEAMX: 0.0
[20]; 0.4000 kg/ha
  Herbicide rating ZEAMX: 0.0
[20]; 0.8000 kg/ha
  Herbicide rating ZEAMX: 0.0
